Experimental data from ChEMBL document CHEMBL1201862, “PubChem BioAssay data set” (2004).
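Assay format: 96-well plates, 48-hour exposure. GI50 marks 50% less growth.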 Active and inactive are the calls of the source. Cut-off read from the data, not from the text of the source: active = GI50 up to about 1.1 µM and inactive = higher.

Key:
Assay in all cases: NCI tumour cell line growth inhibition, 48 h
NCI-H23 = test system: NCI-H23
SK-OV-3 = test system: SK-OV-3
SNB-75 = test system: SNB-75
NCI-H226 = test system: NCI-H226
786-0 = test system: 786-0
T47D = test system: T47D
EKVX = test system: EKVX
M14 = test system: M14
A549 = test system: A549
KM12 = test system: KM12
MOLT-4 = test system: MOLT-4
UACC-62 = test system: UACC-62
SF-539 = test system: SF-539
NCI-H460 = test system: NCI-H460
UACC-257 = test system: UACC-257
PC-3 = test system: PC-3
OVCAR-8 = test system: OVCAR-8
SN12C = test system: SN12C
SNB-19 = test system: SNB-19
OVCAR-3 = test system: OVCAR-3

Measured: GI50

NC(=O)c1c[se]c(C2OC(CO)C(O)C2O)n1 (stereo not given)
inactive: NCI-H23 11 µM | SK-OV-3 > 29 µM | SNB-75 > 59 µM | NCI-H226 > 58.6 µM | 786-0 2.44 µM | T47D > 100 µM | EKVX > 79.1 µM | M14 1.63 µM | A549 8.67 µM | UACC-62 12.3 µM | SF-539 2.43 µM | NCI-H460 17.5 µM | UACC-257 > 100 µM | PC-3 1.44 µM | OVCAR-8 4.31 µM | SN12C > 84.7 µM | SNB-19 6.35 µM
active: KM12 0.57 µM | MOLT-4 0.568 µM | OVCAR-3 0.74 µM

O=C(CC(=O)Nc1ccccc1Cl)NNC(Sc1ccccc1)c1cc(/N=N/c2ccc(Br)cc2)ccc1O (stereo not given)
active: 786-0 0.653 µM | M14 0.785 µM | MOLT-4 0.321 µM | NCI-H460 0.625 µM | PC-3 0.571 µM | OVCAR-8 0.598 µM | OVCAR-3 0.404 µM
inactive: NCI-H23 1.85 µM | SK-OV-3 3.03 µM | SNB-75 4.8 µM | NCI-H226 1.67 µM | T47D 2.02 µM | EKVX 3.29 µM | A549 3.08 µM | KM12 1.35 µM | UACC-62 1.17 µM | SF-539 1.45 µM | UACC-257 2.37 µM | SN12C 2.22 µM | SNB-19 4.06 µM

O=C(Cn1c(=O)oc2ccc(C(=O)c3ccccc3Cl)cc21)c1ccc([N+](=O)[O-])cc1
inactive: NCI-H23 25.4 µM | SK-OV-3 21.9 µM | NCI-H226 34.2 µM | 786-0 19.6 µM | T47D 8.11 µM | EKVX 24.2 µM | M14 18.4 µM | A549 25.2 µM | KM12 20.1 µM | MOLT-4 8.2 µM | UACC-62 12 µM | SF-539 28.8 µM | NCI-H460 18.4 µM | UACC-257 31.1 µM | PC-3 22.8 µM | OVCAR-8 24.7 µM | SN12C 24.5 µM | SNB-19 40.5 µM | OVCAR-3 17 µM
active: SNB-75 0.824 µM

C=CCOC1=C(OC(C)=O)C(=O)OC1C1COC(C)(C)O1 (stereo not given)
inactive: NCI-H23 31.5 µM | SK-OV-3 > 100 µM | SNB-75 > 36.3 µM | NCI-H226 61.1 µM | 786-0 32.1 µM | T47D 23.4 µM | EKVX 27.5 µM | M14 36 µM | A549 > 73.5 µM | KM12 34.2 µM | MOLT-4 18.4 µM | UACC-62 57 µM | SF-539 37.1 µM | NCI-H460 > 62.5 µM | UACC-257 60.3 µM | PC-3 > 57.3 µM | OVCAR-8 28.6 µM | SN12C > 42.8 µM | SNB-19 > 74.3 µM | OVCAR-3 17.5 µM

NC1N=C(c2ccc(Cl)cc2)C2=C(N1)c1ccccc1CC2 (stereo not given)
inactive: NCI-H23 30 µM | SK-OV-3 > 100 µM | SNB-75 1.71 µM | NCI-H226 14.4 µM | 786-0 13.2 µM | T47D 10.4 µM | EKVX 14.2 µM | M14 19.9 µM | A549 20.3 µM | KM12 4.03 µM | MOLT-4 3.17 µM | UACC-62 15 µM | SF-539 14.6 µM | NCI-H460 8.51 µM | UACC-257 > 67.3 µM | PC-3 23.1 µM | OVCAR-8 25.6 µM | SN12C 19.9 µM | SNB-19 > 68.5 µM | OVCAR-3 16.7 µM

COc1ccc(CC2C(=O)NC(C)C(=O)N(C)C3C(=O)N(C)C(Cc4ccc(O)c(c4)Oc4ccc(cc4)C3O)C(=O)NC(C)C(=O)NC(C)C(=O)N2C)cc1 (stereo not given)
active: NCI-H23 0.016 µM | SK-OV-3 0.0236 µM | SNB-75 0.0137 µM | NCI-H226 0.00459 µM | 786-0 0.015 µM | T47D < 0.01 µM | EKVX 0.0261 µM | M14 0.0275 µM | A549 0.0353 µM | KM12 0.00215 µM | MOLT-4 0.0162 µM | UACC-62 0.0138 µM | SF-539 0.0136 µM | NCI-H460 0.0167 µM | UACC-257 0.0071 µM | PC-3 0.01 µM | OVCAR-8 0.021 µM | SN12C 0.018 µM | SNB-19 0.00392 µM | OVCAR-3 0.0113 µM

COC(=O)/C=C/c1cnc2c(c1)oc(=O)n2C
inactive: NCI-H23 > 100 µM | SK-OV-3 > 100 µM | SNB-75 > 100 µM | NCI-H226 > 100 µM | 786-0 > 100 µM | T47D > 100 µM | EKVX > 100 µM | M14 > 100 µM | A549 > 100 µM | KM12 > 100 µM | MOLT-4 > 100 µM | UACC-62 > 100 µM | SF-539 > 100 µM | NCI-H460 > 100 µM | UACC-257 > 100 µM | PC-3 > 100 µM | OVCAR-8 > 100 µM | SN12C > 100 µM | SNB-19 > 100 µM | OVCAR-3 > 100 µM

Clc1ccc(C2=Cc3nc2c(-c2ccccc2)c2ccc([nH]2)c(-c2ccccc2)c2nc(c(-c4ccccc4)c4ccc([nH]4)c3-c3ccccc3)C=C2)cc1
inactive: NCI-H23 > 62.5 µM | SK-OV-3 > 62.5 µM | SNB-75 32.9 µM | NCI-H226 > 62.5 µM | 786-0 > 62.5 µM | T47D > 62.5 µM | EKVX > 62.5 µM | M14 > 62.5 µM | A549 > 62.5 µM | KM12 > 62.5 µM | MOLT-4 > 62.5 µM | UACC-62 > 62.5 µM | SF-539 > 62.5 µM | NCI-H460 > 62.5 µM | UACC-257 > 62.5 µM | PC-3 > 62.5 µM | OVCAR-8 > 62.5 µM | SN12C > 62.5 µM | SNB-19 46 µM | OVCAR-3 > 62.5 µM

N=C(N)NS(=O)(=O)c1ccc(NC(=O)c2ccc3nc4ccccc4c(Nc4ccc(S(=O)(=O)N=C(N)N)cc4)c3c2)cc1
inactive: NCI-H23 > 100 µM | SK-OV-3 > 100 µM | SNB-75 > 100 µM | NCI-H226 > 100 µM | 786-0 > 100 µM | T47D > 100 µM | EKVX > 100 µM | M14 > 100 µM | A549 > 100 µM | KM12 > 100 µM | MOLT-4 > 100 µM | UACC-62 30.1 µM | SF-539 > 100 µM | NCI-H460 > 100 µM | UACC-257 > 100 µM | PC-3 > 100 µM | OVCAR-8 > 100 µM | SN12C > 100 µM | SNB-19 > 100 µM | OVCAR-3 > 100 µM

C1CCC(CC2CCC(NC3=NCCO3)CC2)CC1 (stereo not given)
inactive: NCI-H23 17.9 µM | SK-OV-3 20.9 µM | SNB-75 18.2 µM | NCI-H226 18.8 µM | 786-0 15.2 µM | T47D 24.4 µM | EKVX 22.1 µM | M14 18.9 µM | A549 32.8 µM | KM12 18.3 µM | MOLT-4 21.6 µM | UACC-62 17.3 µM | SF-539 16.8 µM | NCI-H460 20.2 µM | UACC-257 16.4 µM | PC-3 15.8 µM | OVCAR-8 17.1 µM | SN12C 19.8 µM | SNB-19 17.3 µM | OVCAR-3 15.4 µM
